Test results published in patent EP3046573B1, “AMYLIN ANALOGUES” (Zealand Pharma A/S, priority 2013, dated 2015).
Read-outs that look alike come from different tables or passages of the source. Numbered stars: 1 amine (or outer) side, 2 acyl side, 3 side chain; on linkers, the order of the positions; unused ones are H or OH. Bridge positions count the residues as written; N and C are the ends. Square brackets hold non-standard residues; d marks the D form. Peptide text beside a SMILES is read from it. * marks the point of attachment. C20 diacid = O=C(O)CCCCCCCCCCCCCCCCCCC(=O)*; γGlu = O=C(O)[C@H](CCC(=O)[*:2])N[*:1]; Hyp = O=C(O)[C@@H]1C[C@@H](O)CN1; NMeI = CC[C@H](C)[C@H](NC)C(=O)O; Sar = CNCC(=O)O

What was measured:
[1] = biological target: T1, human calcitonin receptor (hCTR2) (Homo sapiens, UniProt P30988); assay: hCTR2 assay: induction of cAMP (AlphaScreen cAMP Assay kit) in COS7 cells expressing hCTR2; assay type: cell-based
T1 construct: expressed in transfected cells
T1 sequence (P30988 25-474): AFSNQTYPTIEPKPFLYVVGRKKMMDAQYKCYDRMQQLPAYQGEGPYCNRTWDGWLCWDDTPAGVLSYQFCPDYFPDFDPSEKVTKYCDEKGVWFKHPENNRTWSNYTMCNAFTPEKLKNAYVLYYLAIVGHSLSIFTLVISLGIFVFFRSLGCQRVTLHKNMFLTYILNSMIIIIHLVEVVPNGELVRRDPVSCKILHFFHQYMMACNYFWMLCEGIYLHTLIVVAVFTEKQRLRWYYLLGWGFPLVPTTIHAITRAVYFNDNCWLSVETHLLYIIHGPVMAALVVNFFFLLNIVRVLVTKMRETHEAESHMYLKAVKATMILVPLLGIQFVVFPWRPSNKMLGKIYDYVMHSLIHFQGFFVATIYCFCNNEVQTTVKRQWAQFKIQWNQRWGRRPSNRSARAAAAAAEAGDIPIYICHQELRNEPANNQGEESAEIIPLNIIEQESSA
How it was run: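 cAMP read-out by AlphaScreen after cell lysis; EC50 and % efficacy vs pramlintide from 4-parameter logistic fitting. Agonist stimulation: hCTR2-COS7 stable cells, 15 min, 37° C, 100 µM IBMX, 0.1% casein, Tyrode/HEPES pH 7.4.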

[2] = biological target: T2, human amylin receptor 3 (hAMYR3) consisting of hCTR2 co-expressed with human Receptor Activity Modifying Protein 3 (hRAMP3) (Homo sapiens, UniProt O60896+P30988); assay: hAMYR3 assay: induction of cAMP (AlphaScreen cAMP Assay kit) in COS7 cells expressing hAMYR3; assay type: cell-based
T2 construct: expressed in transfected cells
T2 sequence (P30988 25-474): T1 sequence (P30988 25-474)
T2 sequence (O60896 24-148 partner): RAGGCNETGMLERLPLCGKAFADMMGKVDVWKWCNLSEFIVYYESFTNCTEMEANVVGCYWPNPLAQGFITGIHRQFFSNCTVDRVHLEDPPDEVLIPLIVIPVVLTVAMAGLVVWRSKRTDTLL
Source text: The cell line COS7, originating from African Green Monkey kidney fibroblast cells, was used for establishment of the stable cell lines described below. The COS7 cellular background was used due to it being RAMP naive, and as such it provides the best available system for testing of the monomeric hCTR and different heterodimeric amylin receptor subtypes functionally generated by introduction of the individual RAMPs.
A cell line expressing the human amylin receptor 3 (hAMYR3) was generated in the COS7 cellular background as stable clones. In brief, hCTR2 (GI:4502547) and hRAMP3 (GI:118572586) were amplified by PCR using primers encoding terminal restriction sites for subcloning. The 5'-end primers additionally encoded a near Kozak consensus sequence to ensure efficient translation. The fidelity of the DNA encoding the receptor was confirmed by DNA sequencing. The PCR products encoding the receptor were subcloned into a proprietary tri-cistronic mammalian expression vector with RAMP3, hCTR2 and neomycin (G418) resistance marker. The mammalian expression vector encoding the receptor was transfected into COS7 cells by a standard liposome transfection method. 48 hours post-transfection, cells were seeded for limited dilution cloning and selected with 1 mg/ml G418 in the culture medium. After 3 weeks, surviving colonies of hAMY3R-expressing cells were picked, propagated and tested in the amylin efficacy assay as described in Example 3 below. The functional generation of the amylin receptor phenotype was verified in the efficacy assay by a left-shifted efficacy response to amylin relative to monomeric calcitonin receptor, and one hAMYR3-expressing clone was chosen for compound profiling.
In vitro activity of test peptides at the hCTR2 and hAMYR3 receptors was assessed by measuring the induction of cAMP following stimulation of the receptor by pramlintide or peptides of the invention using the AlphaScreen® cAMP Assay kit from Perkin-Elmer.
Briefly, COS7 cells expressing hCTR2 (see Example 2, above) were seeded at 30-40,000 cells per well in 96-well microtiter plates coated with 0.01 % poly-L-lysine, and grown for 1 day in culture in 100 µl growth medium [DMEM, 10% FCS, Penicillin (100 IU/ml), Streptomycin (100 µg/ml)]. On the day of analysis, growth medium was removed and the cells were washed once with 200 µl Tyrode buffer [Tyrode's Salts (9.6 g/l), 10 mM HEPES, pH 7.4]. Cells were incubated in 100 µl Tyrode buffer containing increasing concentrations of test peptides, 100 µM IBMX and 0.1% casein for 15 min at 37° C. The reaction was stopped by carefully decanting off the compound/buffer medium and replacing it with lysis/detection buffer (80 µl 0.1 % w/v BSA, 5 mM HEPES, 0.3 % v/v Tween-20 in deionized water). After incubation at room temperature for 10 min., the cAMP content of the resulting cell lysate was estimated according to the AlphaScreen® cAMP Assay manufacturer's instructions. EC50 values and relative efficacy values (in %) compared to reference peptide (Pramlintide) were estimated by computer-aided curve fitting using the 4-parameter logistic (4PL) non-linear model.
The in vitro activity results (expressed as EC50 values) for peptides of the invention and for Pramlintide (reference peptide) are summarized in Table 2, below.

[3] = cAMP induction in COS7 cells expressing hCTR2, average of a minimum of 3 determinations, read-out: hCTR2 EC50
[4] = cAMP induction in COS7 cells expressing hAMYR3, average of a minimum of 3 determinations, read-out: hAMY R3 EC50

SMILES | EC50 [1] | EC50 [2] | EC50 [1, 3] | EC50 [2, 4]
CC[C@H](C)[C@@H](C(=O)N[C@@H](CC(C)C)C(=O)N[C@@H](CO)C(=O)N[C@@H](CO)C(=O)N[C@H](C(=O)N[C@@H](CC(N)=O)C(=O)N[C@H](C(=O)NCC(=O)N[C@@H](CO)C(=O)N[C@@H](CC(N)=O)C(=O)N[C@H](C(=O)N[C@H](C(N)=O)[C@@H](C)O)[C@@H](C)O)C(C)C)[C@@H](C)O)N(C)C(=O)[C@H](C)NC(=O)CN(C)C(=O)[C@H](Cc1ccccc1)NC(=O)[C@H](CC(N)=O)NC(=O)[C@H](CC(N)=O)NC(=O)[C@H](CO)NC(=O)[C@H](CO)NC(=O)[C@H](CCCNC(=N)N)NC(=O)[C@H](Cc1c[nH]cn1)NC(=O)[C@H](CC(C)C)NC(=O)[C@H](Cc1ccccc1)NC(=O)[C@H](CCC(=O)O)NC(=O)[C@H](C)NC(=O)[C@H](CC(C)C)NC(=O)[C@H](CCCNC(=N)N)NC(=O)[C@H](CCC(N)=O)NC(=O)[C@@H](NC(=O)[C@H](C)NC(=O)[C@@H]1CSSC[C@H](NC(=O)[C@H](CCCNC(=N)N)NC(=O)CC[C@H](NC(=O)CCCCCCCCCCCCCCCCCCC(=O)O)C(=O)O)C(=O)N[C@@H](CC(N)=O)C(=O)N[C@@H]([C@@H](C)O)C(=O)N[C@@H](C)C(=O)N[C@@H]([C@@H](C)O)C(=O)N1)[C@@H](C)O [Compound 117, [19CD]-isoGlu-RC()NTATC()ATQRLAEFLHRSSNNF-Gly(Me)-A-Ile(Me)-LSSTNVGSNTT-NH2] ({C20 diacid-γGlu}-RCNTATCATQRLAEFLHRSSNNF[Sar]A[NMeI]LSSTNVGSNTT-NH2; disulfide 2-7) | 0.47 nM | 8.2 nM |  | 
CC[C@H](C)[C@@H](C(=O)N[C@@H](CC(C)C)C(=O)N[C@@H](CO)C(=O)N[C@@H](CO)C(=O)N[C@H](C(=O)N[C@@H](CC(N)=O)C(=O)N[C@H](C(=O)NCC(=O)N[C@@H](CO)C(=O)N[C@@H](CC(N)=O)C(=O)N[C@H](C(=O)N1C[C@H](O)C[C@H]1C(N)=O)[C@@H](C)O)C(C)C)[C@@H](C)O)N(C)C(=O)CN(C)C(=O)[C@H](Cc1ccccc1)NC(=O)[C@H](CC(N)=O)NC(=O)[C@H](CC(N)=O)NC(=O)[C@H](CO)NC(=O)[C@H](CO)NC(=O)[C@H](CCCNC(=N)N)NC(=O)[C@H](Cc1c[nH]cn1)NC(=O)[C@H](CC(C)C)NC(=O)[C@H](Cc1ccccc1)NC(=O)[C@H](CCC(=O)O)NC(=O)[C@H](C)NC(=O)[C@H](CC(C)C)NC(=O)[C@H](CCCNC(=N)N)NC(=O)[C@H](CCC(N)=O)NC(=O)[C@@H](NC(=O)[C@H](C)NC(=O)[C@@H]1CSSC[C@H](NC(=O)[C@H](CCCNC(=N)N)NC(=O)CC[C@H](NC(=O)CCCCCCCCCCCCCCCCCCC(=O)O)C(=O)O)C(=O)N[C@@H](CC(N)=O)C(=O)N[C@@H]([C@@H](C)O)C(=O)N[C@@H](C)C(=O)N[C@@H]([C@@H](C)O)C(=O)N1)[C@@H](C)O [Compound 106, [19CD]-isoGlu-RC()NTATC()ATQRLAEFLHRSSNNF-Gly(Me)-Ile(Me)-LSSTNVGSNT-Hyp-NH2] ({C20 diacid-γGlu}-RCNTATCATQRLAEFLHRSSNNF[Sar][NMeI]LSSTNVGSNT[Hyp]-NH2; disulfide 2-7) |  |  | 0.12 nM | 0.14 nM
CC[C@H](C)[C@@H](C(=O)N[C@@H](CC(C)C)C(=O)N[C@@H](CO)C(=O)N[C@@H](CO)C(=O)N[C@H](C(=O)N[C@@H](CCC(=O)O)C(=O)N[C@H](C(=O)NCC(=O)N[C@@H](CO)C(=O)N[C@@H](CCC(=O)O)C(=O)N[C@H](C(=O)N1C[C@H](O)C[C@H]1C(N)=O)[C@@H](C)O)C(C)C)[C@@H](C)O)N(C)C(=O)CN(C)C(=O)[C@H](Cc1ccccc1)NC(=O)[C@H](CO)NC(=O)[C@H](CO)NC(=O)[C@H](CO)NC(=O)[C@H](CO)NC(=O)[C@H](CCCNC(=N)N)NC(=O)[C@H](Cc1c[nH]cn1)NC(=O)[C@H](CC(C)C)NC(=O)[C@H](Cc1ccccc1)NC(=O)[C@H](CCC(=O)O)NC(=O)[C@H](C)NC(=O)[C@H](CC(C)C)NC(=O)[C@H](CCCNC(=N)N)NC(=O)[C@H](CCC(=O)O)NC(=O)[C@@H](NC(=O)[C@H](C)NC(=O)[C@@H]1CSSC[C@H](NC(=O)[C@H](CCCNC(=N)N)NC(=O)CC[C@H](NC(=O)CCCCCCCCCCCCCCCCCCC(=O)O)C(=O)O)C(=O)N[C@@H](CCC(=O)O)C(=O)N[C@@H]([C@@H](C)O)C(=O)N[C@@H](C)C(=O)N[C@@H]([C@@H](C)O)C(=O)N1)[C@@H](C)O [Compound 171, [19CD]-isoGlu-RC()ETATC()ATERLAEFLHRSSSSF-Gly(Me)-Ile(Me)-LSSTEVGSET-Hyp-NH2] ({C20 diacid-γGlu}-RCETATCATERLAEFLHRSSSSF[Sar][NMeI]LSSTEVGSET[Hyp]-NH2; disulfide 2-7) |  |  | 0.84 nM | 0.54 nM
CC[C@H](C)[C@@H](C(=O)N[C@@H](CC(C)C)C(=O)N[C@@H](CO)C(=O)N[C@@H](CO)C(=O)N[C@H](C(=O)N[C@@H](CCC(=O)O)C(=O)N[C@H](C(=O)NCC(=O)N[C@@H](CO)C(=O)N[C@@H](CCC(=O)O)C(=O)N[C@H](C(=O)N1CCC[C@H]1C(N)=O)[C@@H](C)O)C(C)C)[C@@H](C)O)N(C)C(=O)[C@H](C)NC(=O)CN(C)C(=O)[C@H](Cc1ccccc1)NC(=O)[C@H](CO)NC(=O)[C@H](CO)NC(=O)[C@H](CO)NC(=O)[C@H](CO)NC(=O)[C@H](CCCNC(=N)N)NC(=O)[C@H](Cc1c[nH]cn1)NC(=O)[C@H](CC(C)C)NC(=O)[C@H](Cc1ccccc1)NC(=O)[C@H](CCC(=O)O)NC(=O)[C@H](C)NC(=O)[C@H](CC(C)C)NC(=O)[C@H](CCCNC(=N)N)NC(=O)[C@@H]1CCCN1C(=O)[C@@H](NC(=O)[C@H](C)NC(=O)[C@@H]1CSSC[C@H](NC(=O)[C@H](CCCNC(=N)N)NC(=O)CC[C@H](NC(=O)CCCCCCCCCCCCCCCCCCC(=O)O)C(=O)O)C(=O)N[C@@H](CC(N)=O)C(=O)N[C@@H]([C@@H](C)O)C(=O)N[C@@H](C)C(=O)N[C@@H]([C@@H](C)O)C(=O)N1)[C@@H](C)O [Compound 142, [19CD]-isoGlu-RC()NTATC()ATPRLAEFLHRSSSSF-Gly(Me)-A-Ile(Me)-LSSTEVGSETP-NH2] ({C20 diacid-γGlu}-RCNTATCATPRLAEFLHRSSSSF[Sar]A[NMeI]LSSTEVGSETP-NH2; disulfide 2-7) |  |  | 0.14 nM | 0.29 nM
